Measurements reported in patent publication EP0150892A2, “Substituted alkylidene imidazoles” (G.D. Searle & Co., priority 1984, dated 1985).

Biological target: T1, thromboxane synthetase (Cavia porcellus, UniProt H0UT36)
T1 construct: from tissue; host or cells: citrated whole blood (platelets) of albino male Dunkin-Hartley guinea pigs (printed 'Dunkin-Bartley') dosed orally
T1 sequence (H0UT36 1-533): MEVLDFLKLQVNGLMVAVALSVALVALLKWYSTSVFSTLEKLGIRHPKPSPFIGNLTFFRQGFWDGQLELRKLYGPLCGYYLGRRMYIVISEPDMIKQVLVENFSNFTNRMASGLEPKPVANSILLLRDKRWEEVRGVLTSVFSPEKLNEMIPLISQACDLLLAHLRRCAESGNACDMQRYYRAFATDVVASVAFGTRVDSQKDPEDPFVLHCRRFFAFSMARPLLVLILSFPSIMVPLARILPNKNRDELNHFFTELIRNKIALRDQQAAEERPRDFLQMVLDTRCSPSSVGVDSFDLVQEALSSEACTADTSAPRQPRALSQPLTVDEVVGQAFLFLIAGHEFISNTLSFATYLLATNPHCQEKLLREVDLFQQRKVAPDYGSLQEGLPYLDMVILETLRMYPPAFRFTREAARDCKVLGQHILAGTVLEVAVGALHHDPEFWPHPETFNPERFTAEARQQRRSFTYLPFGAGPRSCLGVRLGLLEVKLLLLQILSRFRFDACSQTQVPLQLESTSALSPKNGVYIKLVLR
Assay: Whole blood aggregation and thromboxane formation in vivo: guinea pig (plasma TXB2 by radioimmunoassay after oral dosing)
Conditions: plasma TXB2 in collagen-stimulated citrated whole blood of guinea pigs dosed orally, versus vehicle controls; normalized to platelet count; dose not given

Compound: CCOC(=O)c1ccc(/C=C(/COCc2ccc(OC)cc2)Cn2ccnc2)c(OC)c1 (single isomer, unassigned) [11 (E-isomer), ethyl 4-[3-(1H-imidazol-1-yl)-2-[[(4-methoxyphenyl]methoxy]methyl]-lE-propenyl]-3-methoxybenzoate]
- % INHIBITION: -36.0%
